# Experimental data: patent US20180200257A1, “METHODS FOR THE TREATMENT OF INFLAMMATORY DISORDERS” (Galapagos NV, priority 2015, published 2018)
# Experiments:
# [1] = tested on: Subjects With Active Crohn's Disease With Evidence of Mucosal Ulceration; experiment: Study 3 - CDAI component PRO2 score; format: in vivo, human; conditions: 200 mg
# Excerpt: Double-Blind, Randomized, Placebo-Controlled, Multi-Centre Study to Investigate the Efficacy and Safety of Compound 1 in Subjects With Active Crohn's Disease With Evidence of Mucosal Ulceration. This is a double-blind, randomized, placebo-controlled, multi-centre Phase 2 study to investigate the efficacy and safety of Compound 1 administered once daily for the treatment of active CD with evidence of mucosal ulceration. The pharmacokinetics (including a PK substudy) and pharmacodynamics of Compound 1 and metabolite in CD will also be characterised. A total of 180 eligible subjects will be randomized to receive Compound 1 or placebo in addition to their stable background treatment (eg, corticosteroids, aminosalicylates, or CD-related antibiotics). The study will consist of 2 parts, with total treatment duration of 20 weeks. Randomization in Part 1 will be stratified according the subject's previous anti-TNF exposure/response, CRP level at Screening, and oral corticosteroid use at visit Day −1. After the first 10 weeks of treatment in Part 1, patients will be re-randomized for Part 2 as shown in the diagram below and will be stratified according to the subject's clinical response, previous anti-TNF exposure/response, and oral corticosteroid use at visit Day -1. [table] Within the CDAI score measurement parameters, the PRO2 score, based on the stool frequency (SF) and abdominal pain (AP) components of the CDAI, was also measured. The PRO2 score is calculated as follows: PRO2=7 x (mean daily number of liquid or very soft stools)+7×(mean daily abdominal pain score). This score provides a measurement of the symptoms improvement of the patient.
# [2] = tested on: Subjects With Active Crohn's Disease With Evidence of Mucosal Ulceration; experiment: Study 3 - Aspartate Aminotransferase (AST) levels; format: in vivo, human
# Excerpt: Double-Blind, Randomized, Placebo-Controlled, Multi-Centre Study to Investigate the Efficacy and Safety of Compound 1 in Subjects With Active Crohn's Disease With Evidence of Mucosal Ulceration. This is a double-blind, randomized, placebo-controlled, multi-centre Phase 2 study to investigate the efficacy and safety of Compound 1 administered once daily for the treatment of active CD with evidence of mucosal ulceration. The pharmacokinetics (including a PK substudy) and pharmacodynamics of Compound 1 and metabolite in CD will also be characterised. A total of 180 eligible subjects will be randomized to receive Compound 1 or placebo in addition to their stable background treatment (eg, corticosteroids, aminosalicylates, or CD-related antibiotics). The study will consist of 2 parts, with total treatment duration of 20 weeks. Randomization in Part 1 will be stratified according the subject's previous anti-TNF exposure/response, CRP level at Screening, and oral corticosteroid use at visit Day −1. After the first 10 weeks of treatment in Part 1, patients will be re-randomized for Part 2 as shown in the diagram below and will be stratified according to the subject's clinical response, previous anti-TNF exposure/response, and oral corticosteroid use at visit Day -1. [table] AST levels determination is available at Quest Diagnostics, Clinical Trials, Quest House, 125-135 Staines Road, Hounslow, Middlesex, TW3 3JB, United Kingdom under Catalogue n#84450. For Study 3, the data are obtained at BARC Europe, 3B,Industrie Park, Zwijnaarde, B-9052 Ghent, Belgium. AST catalyzes the transamination of aspartate and 2-oxoglutarate, forming L-glutamate and oxalacetate. The oxalacetate is reduced to L-malate by malate dehydrogenase, whilst NADH is converted to NAD+, measured spectrophotometrically. Guidelines for the AST value have been issued by the association for Clinical Biochemistry and Laboratory Medicine, 130-132 Tooley Street LONDON SE1 2TU, united Kingdom, wherein the AST value should be below 34 U/l in Female and below 45 U/L in male. As disclosed in the respective study protocols for Study 1 or 2, at week 12, depending on the outcome of their treatment, the subjects may be continued in their initial treatment course, or reassigned to another treatment group in a randomized blinded fashion until week 24. Therefore, the number of subjects (N) for the period of either 12 weeks, or 24 weeks is provided to reflect this redistribution at week 12.
# [3] = 10 weeks results, 200 mg q.d., week 2
# [4] = 10 weeks results, 200 mg q.d., week 4
# [5] = 10 weeks results, 200 mg q.d., week 6
# [6] = 10 weeks results, 200 mg q.d., week 10
# [7] = 20 weeks results, 200 mg q.d. week 0 to 10, to 100 mg q.d. week 10 to 20, week 2
# [8] = 20 weeks results, 200 mg q.d. week 0 to 10, to 100 mg q.d. week 10 to 20, week 4
# [9] = 20 weeks results, 200 mg q.d. week 0 to 10, to 100 mg q.d. week 10 to 20, week 6
# [10] = 20 weeks results, 200 mg q.d. week 0 to 10, to 100 mg q.d. week 10 to 20, week 10
# [11] = 20 weeks results, 200 mg q.d. week 0 to 10, to 100 mg q.d. week 10 to 20, week 12
# [12] = 20 weeks results, 200 mg q.d. week 0 to 10, to 100 mg q.d. week 10 to 20, week 16
# [13] = 20 weeks results, 200 mg q.d. week 0 to 10, to 100 mg q.d. week 10 to 20, week 20
# [14] = 20 weeks results, 200 mg q.d. week 0 to 10, to placebo week 10 to 20, week 2
# [15] = 20 weeks results, 200 mg q.d. week 0 to 10, to placebo week 10 to 20, week 4
# [16] = 20 weeks results, 200 mg q.d. week 0 to 10, to placebo week 10 to 20, week 6
# [17] = 20 weeks results, 200 mg q.d. week 0 to 10, to placebo week 10 to 20, week 10
# [18] = 20 weeks results, 200 mg q.d. week 0 to 10, to placebo week 10 to 20, week 12
# [19] = 20 weeks results, 200 mg q.d. week 0 to 10, to placebo week 10 to 20, week 16
# [20] = 20 weeks results, 200 mg q.d. week 0 to 10, to placebo week 10 to 20, week 20
# [21] = 20 weeks results, continued 200 mg q.d., week 2
# [22] = 20 weeks results, continued 200 mg q.d., week 4
# [23] = 20 weeks results, continued 200 mg q.d., week 6
# [24] = 20 weeks results, continued 200 mg q.d., week 10
# [25] = 20 weeks results, continued 200 mg q.d., week 12
# [26] = 20 weeks results, continued 200 mg q.d., week 16
# [27] = 20 weeks results, continued 200 mg q.d., week 20
# [28] = 20 weeks results, placebo week 0 to 10, to 100 mg q.d. week 10 to 20, week 12
# [29] = 20 weeks results, placebo week 0 to 10, to 100 mg q.d. week 10 to 20, week 16
# [30] = 20 weeks results, placebo week 0 to 10, to 100 mg q.d. week 10 to 20, week 20
smiles,measurement,setting,value
"O=C(Nc1nc2cccc(-c3ccc(CN4CCS(=O)(=O)CC4)cc3)n2n1)C1CC1 [Compound 1, cyclopropanecarboxylic acid {5-[4-(1,1-dioxo-thiomorpholin-4-ylmethyl)-phenyl]-[1,2,4]triazolo[1,5-a]pyridin-2-yl}-amide]","PRO2 mean, baseline","[1]; Baseline, LOCF",52.4
same,"PRO2 mean CFB, W 10","[1]; week 10, LOCF",−21.9
same,PRO2 remission (PRO2 ≤ 28),"[1]; week 10, LOCF",55%
same,"PRO2 response (mean daily number of liquid or very soft stools ≤ 3, mean daily abdominal pain ≤ 1)","[1]; week 10, LOCF",38%
same,PRO2 remission (PRO2 ≤ 28),"[1]; week 10, NRI",50%
same,"PRO2 response (mean daily number of liquid or very soft stools ≤ 3, mean daily abdominal pain ≤ 1)","[1]; week 10, NRI",34%
same,Study 3 - AST Mean CFB,[2]; [3],3.0 IU/L
same,Study 3 - AST Mean percentage CFB,[2]; [3],20.1%
same,Study 3 - AST Mean CFB,[2]; [4],1.5 IU/L
same,Study 3 - AST Mean percentage CFB,[2]; [4],13.4%
same,Study 3 - AST Mean CFB,[2]; [5],1.3 IU/L
same,Study 3 - AST Mean percentage CFB,[2]; [5],12.0%
same,Study 3 - AST Mean CFB,[2]; [6],5.4 IU/L
same,Study 3 - AST Mean percentage CFB,[2]; [6],38.7%
same,Study 3 - AST Mean CFB,[2]; [7],1.50 IU/L
same,Study 3 - AST Mean percentage CFB,[2]; [7],11.88%
same,Study 3 - AST Mean CFB,[2]; [8],3.28 IU/L
same,Study 3 - AST Mean percentage CFB,[2]; [8],19.48%
same,Study 3 - AST Mean CFB,[2]; [9],1.40 IU/L
same,Study 3 - AST Mean percentage CFB,[2]; [9],10.05%
same,Study 3 - AST Mean CFB,[2]; [10],3.90 IU/L
same,Study 3 - AST Mean percentage CFB,[2]; [10],23.93%
same,Study 3 - AST Mean CFB,[2]; [11],1.13 IU/L
same,Study 3 - AST Mean percentage CFB,[2]; [11],10.30%
same,Study 3 - AST Mean CFB,[2]; [12],2.82 IU/L
same,Study 3 - AST Mean percentage CFB,[2]; [12],20.91%
same,Study 3 - AST Mean CFB,[2]; [13],8.15 IU/L
same,Study 3 - AST Mean percentage CFB,[2]; [13],50.50%
same,Study 3 - AST Mean CFB,[2]; [14],0.96 IU/L
same,Study 3 - AST Mean percentage CFB,[2]; [14],8.86%
same,Study 3 - AST Mean CFB,[2]; [15],1.96 IU/L
same,Study 3 - AST Mean percentage CFB,[2]; [15],13.24%
same,Study 3 - AST Mean CFB,[2]; [16],1.87 IU/L
same,Study 3 - AST Mean percentage CFB,[2]; [16],12.17%
same,Study 3 - AST Mean CFB,[2]; [17],7.17 IU/L
same,Study 3 - AST Mean percentage CFB,[2]; [17],45.50%
same,Study 3 - AST Mean CFB,[2]; [18],2.87 IU/L
same,Study 3 - AST Mean percentage CFB,[2]; [18],14.82%
same,Study 3 - AST Mean CFB,[2]; [19],2.62 IU/L
same,Study 3 - AST Mean percentage CFB,[2]; [19],16.62%
same,Study 3 - AST Mean CFB,[2]; [20],3.14 IU/L
same,Study 3 - AST Mean percentage CFB,[2]; [20],21.09%
same,Study 3 - AST Mean CFB,[2]; [21],4.24 IU/L
same,Study 3 - AST Mean percentage CFB,[2]; [21],26.67%
same,Study 3 - AST Mean CFB,[2]; [22],0.73 IU/L
same,Study 3 - AST Mean percentage CFB,[2]; [22],11.03%
same,Study 3 - AST Mean CFB,[2]; [23],1.12 IU/L
same,Study 3 - AST Mean percentage CFB,[2]; [23],12.72%
same,Study 3 - AST Mean CFB,[2]; [24],5.61 IU/L
same,Study 3 - AST Mean percentage CFB,[2]; [24],43.70%
same,Study 3 - AST Mean CFB,[2]; [25],1.64 IU/L
same,Study 3 - AST Mean percentage CFB,[2]; [25],18.27%
same,Study 3 - AST Mean CFB,[2]; [26],3.78 IU/L
same,Study 3 - AST Mean percentage CFB,[2]; [26],32.98%
same,Study 3 - AST Mean CFB,[2]; [27],1.53 IU/L
same,Study 3 - AST Mean percentage CFB,[2]; [27],19.45%
same,Study 3 - AST Mean CFB,[2]; [28],1.64 IU/L
same,Study 3 - AST Mean percentage CFB,[2]; [28],16.84%
same,Study 3 - AST Mean CFB,[2]; [29],0.68 IU/L
same,Study 3 - AST Mean percentage CFB,[2]; [29],10.89%
same,Study 3 - AST Mean CFB,[2]; [30],1.10 IU/L
same,Study 3 - AST Mean percentage CFB,[2]; [30],16.93%
